Test results from ChEMBL document CHEMBL5537159, “Discovery and SAR of JTE-151: A Novel RORγ Inhibitor for Clinical Development” (J Med Chem, 2024).

How the values were obtained:
[1] = Tmax in human at 200 […], po administered as single dose and measured upto 144 hrs; assay type: ADME, organism-based; settings: in vivo
[2] = molecular target: Histamine H1 receptor (Homo sapiens, UniProt P35367); test: Inhibition of human histamine H1 receptor
[3] = Selectivity ratio of agonist activity at mouse LXRalpha to inhibition of RORgamma (unknown origin)
[4] = Selectivity ratio of antagonist activity at human RORbeta to inhibition of RORgamma (unknown origin)
[5] = Cardiotoxicity in Beagle dog assessed as QTcF prolongation upto 100 mg/kg, po bid measured for 24 hrs; assay type: toxicity, organism-based, Canis lupus familiaris; settings: in vivo
[6] = Genotoxicity in Salmonella typhimurium TA1537 at 23 to 750 ug in absence of S9 fraction by bacterial reverse mutation test; assay type: toxicity, Salmonella enterica subsp. enterica serovar Typhimurium; settings: in vivo; dose 23-750 µg
[7] = Inhibition of rat nitric oxide synthase
[8] = AUCinfinity in C57BL/6J mouse at 3 mg/kg, po administered as single dose and measured after 24 hrs; assay type: ADME, organism-based; settings: in vivo
[9] = Genotoxicity in Salmonella typhimurium TA1537 at 47 to 1500 ug in presence of S9 fraction by bacterial reverse mutation test; assay type: toxicity, subcellular, Salmonella enterica subsp. enterica serovar Typhimurium; settings: dose 47-1500 µg
[10] = molecular target: Amine oxidase [flavin-containing] B (Homo sapiens, UniProt P27338); test: Inhibition of human MAO-B
[11] = Genotoxicity in Salmonella typhimurium TA98 at 47 to 1500 ug in presence of S9 fraction by bacterial reverse mutation test; assay type: toxicity, subcellular, Salmonella enterica subsp. enterica serovar Typhimurium; settings: dose 47-1500 µg
[12] = Selectivity ratio of antagonist activity at human PR to inhibition of RORgamma (unknown origin)
[13] = molecular target: Cytochrome P450 2D6 (Homo sapiens, UniProt P10635); test: Inhibition of CYP2D6 in human liver microsomes; assay type: ADME, Microsome
[14] = AUClast in human at 400 mg/kg, po administered as single dose and measured upto 144 hrs; assay type: ADME, organism-based; settings: in vivo
[15] = Selectivity ratio of antagonist activity at human PPARgamma to inhibition of RORgamma (unknown origin)
[16] = Tmax in human at 100 […], po administered as single dose and measured upto 144 hrs; assay type: ADME, organism-based; settings: in vivo
[17] = Selectivity ratio of agonist activity at mouse GR to inhibition of RORgamma (unknown origin)
[18] = molecular target: Adrenergic receptor alpha-1 (Rattus norvegicus, UniProt P15823+P23944+P43140); test: Inhibition of rat adrenergic alpha1 receptor; assay type: protein assay
[19] = molecular target: Cytochrome P450 2B6 (Homo sapiens, UniProt P20813); test: Inhibition of CYP2B6 in human liver microsomes; assay type: ADME, Microsome
[20] = Selectivity ratio of antagonist activity at mouse GR to inhibition of RORgamma (unknown origin)
[21] = Genotoxicity in Salmonella typhimurium TA98 at 23 to 750 ug in absence of S9 fraction by bacterial reverse mutation test; assay type: toxicity, Salmonella enterica subsp. enterica serovar Typhimurium; settings: in vivo; dose 23-750 µg
[22] = Genotoxicity in Salmonella typhimurium TA100 at 23 to 750 ug in absence of S9 fraction by bacterial reverse mutation test; assay type: toxicity, Salmonella enterica subsp. enterica serovar Typhimurium; settings: in vivo; dose 23-750 µg
[23] = MRT in CD(SD) rat at 10 mg/kg, po administered as single dose and measured after 24 hrs; assay type: ADME, organism-based; settings: in vivo
[24] = AUCinfinity in Beagle dog at 3 mg/kg, po administered as single dose and measured after 24 hrs; assay type: ADME, organism-based, Canis lupus familiaris; settings: in vivo
[25] = Tmax in human at 1000 […], po administered as single dose and measured upto 144 hrs; assay type: ADME, organism-based; settings: in vivo
[26] = Selectivity ratio of antagonist activity at human AR to inhibition of RORgamma (unknown origin)
[27] = Elimination half life in human at 1600 mg/kg, po administered as single dose and measured upto 144 hrs; assay type: ADME, organism-based; settings: in vivo, read-out: beta t1/2 (converted)
[28] = molecular target: Adenosine receptor A1 (Homo sapiens, UniProt P30542); test: Inhibition of human Adenosine A1 receptor
[29] = Toxicity in CHL cells assessed as chromosomal aberration at 30 to 50 ug/ml incubated for 24 hrs in presence of S9 fraction; assay type: subcellular, Cricetulus griseus; settings: chinese hamster, s9, 24 h, dose 30-50 µg/ml
[30] = Metabolic stability in human liver microsomes assessed as compound remaining at 5 umol/L measured after 60 mins by UPLC/MS analysis; assay type: ADME, Microsome; settings: dose 5 µmol/L, read-out: Stability
[31] = molecular target: Cytochrome P450 3A4 (Homo sapiens, UniProt P08684); test: Inhibition of CYP3A4 in human liver microsomes using midazolam as substrate; assay type: ADME, Microsome
[32] = Selectivity ratio of agonist activity at human ERalpha to inhibition of RORgamma (unknown origin)
[33] = molecular target: 5-hydroxytryptamine receptor 1A (Homo sapiens, UniProt P08908); test: Inhibition of human 5-HT1A receptor
[34] = Tmax in human at 60 […], po administered as single dose and measured upto 144 hrs; assay type: ADME, organism-based; settings: in vivo
[35] = Selectivity ratio of antagonist activity at human PPARdelta to inhibition of RORgamma (unknown origin)
[36] = AUClast in human at 1600 mg/kg, po administered as single dose and measured upto 144 hrs; assay type: ADME, organism-based; settings: in vivo
[37] = Selectivity ratio of agonist activity at human RARalpha to inhibition of RORgamma (unknown origin)
[38] = Cmax in human at 60 […], po administered as single dose and measured upto 144 hrs; assay type: ADME, organism-based; settings: in vivo
[39] = Tmax in human at 1600 […], po administered as single dose and measured upto 144 hrs; assay type: ADME, organism-based; settings: in vivo
[40] = Elimination half life in C57BL/6J mouse at 1 mg/kg, iv administered as single dose and measured after 24 hrs; assay type: ADME, organism-based; settings: in vivo, read-out: beta t1/2 (converted)
[41] = Selectivity ratio of antagonist activity at human SF1 to inhibition of RORgamma (unknown origin)
[42] = Selectivity ratio of antagonist activity at human RXRalpha to inhibition of RORgamma (unknown origin)
[43] = Selectivity ratio of antagonist activity at human ERalpha to inhibition of RORgamma (unknown origin)
[44] = Selectivity ratio of antagonist activity at human PPARalpha to inhibition of RORgamma (unknown origin)
[45] = Total body clearance in Beagle dog at 1 mg/kg, iv administered as single dose and measured after 24 hrs; assay type: ADME, organism-based, Canis lupus familiaris; settings: in vivo
[46] = molecular target: Cytochrome P450 2C8 (Homo sapiens, UniProt P10632); test: Inhibition of CYP2C8 in human liver microsomes; assay type: ADME, Microsome
[47] = molecular target: Cytochrome P450 3A5 (Homo sapiens, UniProt P20815); test: Inhibition of CYP3A5 in human liver microsomes using midazolam as substrate; assay type: ADME, Microsome
[48] = Total body clearance in C57BL/6J mouse at 1 mg/kg, iv administered as single dose and measured after 24 hrs; assay type: ADME, organism-based; settings: in vivo
[49] = MRT in C57BL/6J mouse at 3 mg/kg, po administered as single dose and measured after 24 hrs; assay type: ADME, organism-based; settings: in vivo
[50] = Oral bioavailability in Beagle dog at 3 mg/kg administered as single dose and measured after 24 hrs; assay type: ADME, organism-based, Canis lupus familiaris; settings: in vivo
[51] = Toxicity in CHL cells assessed as chromosomal aberration at 30 to 50 ug/ml incubated for 24 hrs in absence of S9 fraction; assay type: cell-based, Cricetulus griseus; settings: chinese hamster, dose 30-50 µg/ml

5-hydroxytryptamine receptor 1A, sequence (P08908 whole entry): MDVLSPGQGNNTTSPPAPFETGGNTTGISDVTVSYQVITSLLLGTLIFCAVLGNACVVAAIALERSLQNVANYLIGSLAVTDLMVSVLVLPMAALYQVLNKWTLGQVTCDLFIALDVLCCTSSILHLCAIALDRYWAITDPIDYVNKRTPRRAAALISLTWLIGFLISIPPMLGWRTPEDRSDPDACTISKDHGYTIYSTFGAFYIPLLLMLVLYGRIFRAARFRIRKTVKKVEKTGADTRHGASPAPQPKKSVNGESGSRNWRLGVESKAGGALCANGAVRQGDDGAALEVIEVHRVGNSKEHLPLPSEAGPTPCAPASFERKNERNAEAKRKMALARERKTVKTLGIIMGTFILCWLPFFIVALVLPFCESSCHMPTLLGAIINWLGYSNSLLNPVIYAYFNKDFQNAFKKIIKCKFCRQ
Cytochrome P450 2B6, sequence (P20813 whole entry): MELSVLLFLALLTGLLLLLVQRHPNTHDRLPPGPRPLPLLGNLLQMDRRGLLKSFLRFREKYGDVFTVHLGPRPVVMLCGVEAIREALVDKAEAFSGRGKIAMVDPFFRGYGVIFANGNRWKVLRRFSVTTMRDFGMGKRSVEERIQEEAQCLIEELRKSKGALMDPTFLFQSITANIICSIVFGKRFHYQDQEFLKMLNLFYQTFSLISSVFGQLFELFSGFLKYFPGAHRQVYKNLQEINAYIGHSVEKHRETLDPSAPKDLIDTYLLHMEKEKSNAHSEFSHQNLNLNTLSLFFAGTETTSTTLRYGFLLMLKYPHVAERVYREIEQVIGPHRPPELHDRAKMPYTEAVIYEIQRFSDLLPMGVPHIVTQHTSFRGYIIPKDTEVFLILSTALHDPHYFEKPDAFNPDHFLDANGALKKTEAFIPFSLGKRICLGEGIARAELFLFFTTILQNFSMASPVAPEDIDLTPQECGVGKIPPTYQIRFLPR
Cytochrome P450 3A5, sequence (P20815 whole entry): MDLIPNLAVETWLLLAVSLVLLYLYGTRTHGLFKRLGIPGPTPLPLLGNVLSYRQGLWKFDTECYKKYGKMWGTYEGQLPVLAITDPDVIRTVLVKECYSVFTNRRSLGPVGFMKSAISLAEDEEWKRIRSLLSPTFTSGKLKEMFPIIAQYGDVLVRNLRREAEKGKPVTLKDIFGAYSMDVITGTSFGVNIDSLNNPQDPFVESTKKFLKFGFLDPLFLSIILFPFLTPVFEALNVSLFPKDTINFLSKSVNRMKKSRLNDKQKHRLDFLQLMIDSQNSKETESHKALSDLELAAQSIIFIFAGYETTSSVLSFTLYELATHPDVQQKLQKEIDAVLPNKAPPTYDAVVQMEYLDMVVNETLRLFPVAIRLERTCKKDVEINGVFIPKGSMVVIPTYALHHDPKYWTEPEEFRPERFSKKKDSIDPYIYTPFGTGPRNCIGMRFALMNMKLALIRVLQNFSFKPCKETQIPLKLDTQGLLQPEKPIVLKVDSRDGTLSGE
Amine oxidase [flavin-containing] B, sequence (P27338 whole entry): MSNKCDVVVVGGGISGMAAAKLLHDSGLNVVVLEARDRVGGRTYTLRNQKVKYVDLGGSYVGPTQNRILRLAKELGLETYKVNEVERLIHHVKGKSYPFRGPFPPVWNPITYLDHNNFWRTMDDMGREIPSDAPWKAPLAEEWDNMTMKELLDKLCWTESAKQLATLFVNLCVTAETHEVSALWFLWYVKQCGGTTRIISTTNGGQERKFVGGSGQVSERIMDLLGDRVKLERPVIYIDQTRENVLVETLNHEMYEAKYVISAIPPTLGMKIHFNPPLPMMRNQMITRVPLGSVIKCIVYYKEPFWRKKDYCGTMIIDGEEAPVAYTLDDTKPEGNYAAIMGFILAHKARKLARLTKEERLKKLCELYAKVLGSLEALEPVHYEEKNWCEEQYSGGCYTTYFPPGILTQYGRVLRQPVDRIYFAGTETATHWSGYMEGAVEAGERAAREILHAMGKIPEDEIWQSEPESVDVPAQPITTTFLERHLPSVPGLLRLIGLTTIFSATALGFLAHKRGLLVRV
Adenosine receptor A1, sequence (P30542 whole entry): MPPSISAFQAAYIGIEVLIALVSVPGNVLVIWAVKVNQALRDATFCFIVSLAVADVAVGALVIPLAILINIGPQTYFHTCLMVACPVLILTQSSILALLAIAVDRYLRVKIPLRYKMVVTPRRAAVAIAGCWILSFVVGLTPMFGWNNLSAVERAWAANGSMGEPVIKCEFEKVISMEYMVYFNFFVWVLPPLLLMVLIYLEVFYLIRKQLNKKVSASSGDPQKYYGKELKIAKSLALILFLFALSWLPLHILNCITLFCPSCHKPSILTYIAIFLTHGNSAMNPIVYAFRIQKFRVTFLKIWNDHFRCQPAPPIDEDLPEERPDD
Histamine H1 receptor, sequence (P35367 whole entry): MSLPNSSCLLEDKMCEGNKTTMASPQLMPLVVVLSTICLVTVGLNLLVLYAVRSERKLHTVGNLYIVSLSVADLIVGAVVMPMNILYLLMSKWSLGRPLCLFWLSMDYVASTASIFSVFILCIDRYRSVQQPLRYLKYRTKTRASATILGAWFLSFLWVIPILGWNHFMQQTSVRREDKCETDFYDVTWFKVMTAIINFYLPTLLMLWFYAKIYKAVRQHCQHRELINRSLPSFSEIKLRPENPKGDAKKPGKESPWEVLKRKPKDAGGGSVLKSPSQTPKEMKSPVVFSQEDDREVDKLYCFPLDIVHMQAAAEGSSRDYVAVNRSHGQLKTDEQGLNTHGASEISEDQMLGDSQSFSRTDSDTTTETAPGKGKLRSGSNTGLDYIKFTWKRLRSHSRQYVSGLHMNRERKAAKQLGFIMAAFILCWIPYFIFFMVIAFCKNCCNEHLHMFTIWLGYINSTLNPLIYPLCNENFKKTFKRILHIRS
Cytochrome P450 3A4, sequence (P08684 whole entry): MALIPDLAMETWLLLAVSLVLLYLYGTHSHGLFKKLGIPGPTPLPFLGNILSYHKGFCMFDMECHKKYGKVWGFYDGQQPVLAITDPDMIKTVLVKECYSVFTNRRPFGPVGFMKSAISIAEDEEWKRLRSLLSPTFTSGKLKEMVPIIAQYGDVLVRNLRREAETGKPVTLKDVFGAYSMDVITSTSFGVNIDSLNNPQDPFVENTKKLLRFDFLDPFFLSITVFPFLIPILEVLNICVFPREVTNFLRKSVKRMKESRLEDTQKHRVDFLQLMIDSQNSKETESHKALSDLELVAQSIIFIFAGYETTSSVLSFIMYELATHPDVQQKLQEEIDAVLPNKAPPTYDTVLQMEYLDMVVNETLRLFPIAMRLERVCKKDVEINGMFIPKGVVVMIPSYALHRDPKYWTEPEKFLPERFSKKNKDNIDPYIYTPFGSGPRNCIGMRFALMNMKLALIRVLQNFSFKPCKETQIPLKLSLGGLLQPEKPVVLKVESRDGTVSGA
Cytochrome P450 2C8, sequence (P10632 whole entry): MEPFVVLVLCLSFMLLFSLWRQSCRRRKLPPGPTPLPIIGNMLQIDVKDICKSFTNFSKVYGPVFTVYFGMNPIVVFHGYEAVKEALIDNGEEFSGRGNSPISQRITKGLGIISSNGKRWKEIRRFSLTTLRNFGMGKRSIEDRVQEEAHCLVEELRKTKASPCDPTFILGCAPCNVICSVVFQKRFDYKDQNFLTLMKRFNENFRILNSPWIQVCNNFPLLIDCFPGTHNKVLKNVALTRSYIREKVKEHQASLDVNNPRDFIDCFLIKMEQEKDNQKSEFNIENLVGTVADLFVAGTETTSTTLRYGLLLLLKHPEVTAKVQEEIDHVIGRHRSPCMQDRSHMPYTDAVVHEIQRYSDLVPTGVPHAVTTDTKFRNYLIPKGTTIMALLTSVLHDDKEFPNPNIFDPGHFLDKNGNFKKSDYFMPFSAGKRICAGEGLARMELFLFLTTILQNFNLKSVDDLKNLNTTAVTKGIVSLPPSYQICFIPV
Cytochrome P450 2D6, sequence (P10635 whole entry): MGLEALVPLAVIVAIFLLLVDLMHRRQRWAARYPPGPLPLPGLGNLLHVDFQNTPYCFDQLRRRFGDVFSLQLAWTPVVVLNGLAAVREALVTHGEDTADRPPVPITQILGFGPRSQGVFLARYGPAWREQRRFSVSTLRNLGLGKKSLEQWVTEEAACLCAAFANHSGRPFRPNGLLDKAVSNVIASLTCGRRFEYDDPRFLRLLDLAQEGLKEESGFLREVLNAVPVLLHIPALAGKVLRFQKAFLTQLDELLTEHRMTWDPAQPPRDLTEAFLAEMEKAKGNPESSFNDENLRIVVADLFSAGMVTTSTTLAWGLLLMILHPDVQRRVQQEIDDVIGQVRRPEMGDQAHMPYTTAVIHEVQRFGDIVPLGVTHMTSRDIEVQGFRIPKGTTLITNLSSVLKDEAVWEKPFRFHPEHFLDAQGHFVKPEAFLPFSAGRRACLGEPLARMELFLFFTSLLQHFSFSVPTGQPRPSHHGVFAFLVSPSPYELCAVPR

Cc1ccc(NC(=O)C[C@H](CCC(=O)O)c2noc([C@H]3C[C@@H](CC(C)(C)C)C3)c2C2CC2)c(Cl)c1
Tmax [1]: 3.25 h
IC50 [2]: > 10 µM
Selectivity ratio [3]: > 100
Selectivity ratio [4]: > 100
Activity [5]: Non-Toxic
Activity [6]: Non-Toxic
IC50 [7]: > 10 µM
AUC(0-inf) [8]: 173 µM·h
Activity [9]: Non-Toxic
IC50 [10]: > 10 µM
Activity [11]: Non-Toxic
Selectivity ratio [12]: > 100
IC50 [13]: > 10 µM
AUC(0-t) at 144 h [14]: 94.3 µg·h/mL
Selectivity ratio [15]: > 100
Tmax [16]: 3.03 h
Selectivity ratio [17]: > 100
IC50 [18]: > 10 µM
IC50 [19]: > 10 µM
Selectivity ratio [20]: > 100
Activity [21]: Non-Toxic
Activity [22]: Non-Toxic
MRT [23]: 5.6 h
AUC(0-inf) [24]: 118 µM·h
Tmax [25]: 3.5 h
Selectivity ratio [26]: > 100
half-life [27]: 10.7 h
IC50 [28]: > 10 µM
Activity [29]: Non-Toxic
remaining at 1 h, 5 µM [30]: 73%
IC50 [31]: > 10 µM
Selectivity ratio [32]: > 100
IC50 [33]: > 10 µM
Tmax [34]: 4 h
Selectivity ratio [35]: > 100
AUC(0-t) at 144 h [36]: 371 µg·h/mL
Selectivity ratio [37]: > 100
Cmax [38]: 2260 ng/mL
Tmax [39]: 3.54 h
half-life [40]: 3.8 h
Selectivity ratio [41]: > 100
Selectivity ratio [42]: > 100
Selectivity ratio [43]: > 100
Selectivity ratio [44]: > 100
clearance [45]: 0.5 mL/min/kg
IC50 [46]: 6.8 µM
IC50 [47]: > 10 µM
clearance [48]: 0.5 mL/min/kg
MRT [49]: 5.8 h
bioavailability [50]: 64%
Activity [51]: Non-Toxic
